{"source": "patent US20050222383A1", "about": "“Prostasin substrates and inhibitors” (IRM LLC, priority 2004, published 2005)", "molecules": {"B1": {"name": "α1-antichymotrypsin (protein, UniProt P01011 24-423, looked up)", "Alpha-1-antichymotrypsin": "HPNSPLDEENLTQENQDRGTHVDLGLASANVDFAFSLYKQLVLKAPDKNVIFSPLSISTALAFLSLGAHNTTLTEILKGLKFNLTETSEAEIHQSFQHLLRTLNQSSDELQLSMGNAMFVKEQLSLLDRFTEDAKRLYGSEAFATDFQDSAAAKKLINDYVKNGTRGKITDLIKDLDSQTMMVLVNYIFFKAKWEMPFDPQDTHQSRFYLSKKKWVMVPMMSLHHLTIPYFRDEELSCTVVELKYTGNASALFILPDQDKMEEVEAMLLPETLKRWRDSLEFREIGELYLPKFSISRDYNLNDILLQLGIEEAFTSKADLSGITGARNLAVSQVVHKAVLDVFEEGTEASAATAVKITLLSALVETRTIVRFNRPFLMIIVPTDTQNIFFMSKVTNPKQA"}}, "key": {"prostasin [1]": {"target": "T1, prostasin (Homo sapiens, UniProt Q16651)", "T1 construct": "eliminate the N-terminal signal peptide domain and light chain and the C-terminal GPI signal domain; honeybee melittin signal peptide (21 aa) (N); made in house; host or cells: Sf9 insect cells, baculovirus (Bac-to-Bac, pFastBac1)", "T1 sequence (Q16651 45-322 limits assumed)": "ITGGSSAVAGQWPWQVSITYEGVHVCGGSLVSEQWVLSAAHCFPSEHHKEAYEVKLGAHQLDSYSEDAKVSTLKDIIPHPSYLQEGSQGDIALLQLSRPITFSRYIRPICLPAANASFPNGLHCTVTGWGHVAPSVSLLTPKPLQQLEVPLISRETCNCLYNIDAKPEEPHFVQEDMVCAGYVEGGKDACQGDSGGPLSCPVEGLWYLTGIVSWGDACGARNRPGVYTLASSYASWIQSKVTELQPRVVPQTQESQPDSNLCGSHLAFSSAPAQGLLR", "experiment": "Cation/anion inhibition of prostasin activity against Ac-KHYR-acc", "format": "biochemical", "conditions": "read-out: Inhibition constants"}, "prostasin [2]": {"target": "T1, prostasin", "experiment": "Prostasin assayed in tetrapeptide substrate libraries with a set concentration of sodium, calcium or zinc", "format": "biochemical", "conditions": "for effect on substrate specificity profile / decrease in activity across the libraries: tetrapeptide substrate libraries; for decrease in activity across the libraries: set concentration of ion", "experimental": "P1-P4-Fluorogenic substrate libraries were synthesized as previously described (Wang et al, J. Biol. Chem., 278: 15800-15808, 2003). Prostasin was diluted in assay buffer and added to the library plates. In the two-position fixed tetrapeptide substrate library, the final substrate concentration was approximately 0.25 μM/substrate/well with a total of 361 substrates per well. Each variable position had one of 19 amino acids with cysteine excluded and methionine replaced by its isostere norleucine.\nFurther, prostasin was assayed in the tetrapeptide substrate libraries with a set concentration of sodium, calcium or zinc to determine the effect of each on overall substrate specificity."}, "prostasin [3]": {"target": "T1, prostasin", "experiment": "Assays with transition metals, prostasin activity with Ac-KHYR-acmc", "format": "biochemical", "conditions": "for enhancement effect: increase of enzymatic activity: Ac-KHYR-acmc substrate, sub inhibitory metal ion concentrations; for increases in IC50 values: assays with KHYR substrate", "experimental": "(§1) Proteolytic activity of the purified prostasin was monitored by measuring the accumulation of the fluorophore 7-amino-3-carbamoylmethyl-4-methylcoumarin (acmc) or 7-amino-4-carbamoylmethylcoumarin (acc) produced by the cleavage of the tetrapeptide substrate Ac-KHYR-acmc, Ac-KHYR-acc or Ac-PRLR-acmc in assay buffer (50 mM Tris-Cl pH 9.0, 0.25% CHAPS; 10 mM CHES pH 9.0 (37° C.), 0.25% CHAPS; or 10 mM Hepes pH 7.4 (37° C.), 0.25% CHAPS) at 37° C. Assays were run in 96 or 384-well black microtiter plates. Data was collected with a Gemini XS plate reader (Molecular Devices) at λex=380 nm and λem=450 nm."}, "prostasin [4]": {"target": "T1, prostasin", "experiment": "Michaelis-Menten kinetics of KHYR-acmc and PRLR-acmc in the presence of zinc", "format": "biochemical", "experimental": "as §1\nThe effect of zinc on the Michelis-Menten kinetics of KHYR-acmc and PRLR-acmc was measured in the presence of 20 μM zinc(II). […] The kcat of KHYR-acmc was 2.7 fold higher and the kcat of PRLR-acmc was 1.6 fold lower. These changes translated into a 30-fold increase in specificity for KHYR over PRLR in the presence of zinc."}, "prostasin [5]": {"target": "T1, prostasin", "experiment": "Inhibition assays of macromolecular inhibitors, prostasin activity against Ac-KHYR-acmc", "format": "biochemical", "conditions": "Ac-KHYR-acmc substrate, Tris-CHAPS buffer; read-out: classical inhibition constants (Ki)", "experimental": "as §1\nThe inhibition constants of macromolecular inhibitors were calculated for prostasin. Prostasin activity against Ac-KHYR-acmc was measured in Tris-CHAPS buffer, as in “Enzyme Assays,” in the presence of 10 μM-170 pM aprotinin and soybean trypsin inhibitor (SBTI), 1 μM-17 pM α1-antitrypsin, and 200 nM-3.3 pM α1-antichymotrypsin. Rates were plotted in Prism (GraphPad) and classical inhibition constants (Ki) were calculated using the results of non-linear regression."}, "[6]": {"test_system": "Xenopus kidney epithelial cell line", "conditions": "exposure of the apical membrane; cited from earlier work"}, "[7]": {"conditions": "Ac-KHYR-acc substrate, CHES-CHAPS buffer, 37° C."}, "[8]": {"conditions": "in the presence of 20 μM zinc(II)"}}, "data": [{"molecule": "[Ca+2].[Cl-].[Cl-]", "note": "[CaCl2]", "values": [{"measurement": "Ki", "setting": "prostasin [1]; [7]", "result": 260, "unit": "µM"}]}, {"molecule": "[Cl-].[Cl-].[Co+2]", "note": "[CoCl2]", "values": [{"measurement": "Ki", "setting": "prostasin [1]", "result": 5, "unit": "µM"}]}, {"molecule": "[Cl-].[K+]", "note": "[KCl]", "values": [{"measurement": "Ki", "setting": "prostasin [1]; [7]", "result": 5800, "unit": "µM"}]}, {"molecule": "[Cl-].[Li+]", "note": "[LiCl]", "values": [{"measurement": "Ki", "setting": "prostasin [1]; [7]", "result": 2400, "unit": "µM"}]}, {"molecule": "[Cl-].[Cl-].[Mg+2]", "note": "[MgCl2]", "values": [{"measurement": "Ki", "setting": "prostasin [1]; [7]", "result": 390, "unit": "µM"}]}, {"molecule": "[Cl-].[Na+]", "note": "[NaCl]", "values": [{"measurement": "Ki", "setting": "prostasin [1]", "result": 5300, "unit": "µM"}]}, {"molecule": "[F-].[Na+]", "note": "[NaF]", "values": [{"measurement": "Ki", "setting": "prostasin [1]; [7]", "result": 4200, "unit": "µM"}]}, {"molecule": "[I-].[Na+]", "note": "[NaI]", "values": [{"measurement": "Ki", "setting": "prostasin [1]; [7]", "result": 4500, "unit": "µM"}]}, {"molecule": "[Ca+2]", "note": "[calcium]", "values": [{"measurement": "effect on substrate specificity profile", "setting": "prostasin [2]", "result": "Neither sodium nor calcium changed the substrate profile"}, {"measurement": "decrease in activity across the libraries", "setting": "prostasin [2]", "result": "25-35%"}]}, {"molecule": "[Co+2]", "note": "[cobalt]", "values": [{"measurement": "enhancement effect: increase of enzymatic activity", "setting": "prostasin [3]", "result": "No enhancement in activity"}, {"measurement": "increases in IC50 values", "setting": "prostasin [3]", "result": 10, "unit": "fold"}]}, {"molecule": "[Cu+2]", "note": "[copper]", "values": [{"measurement": "increases in IC50 values", "setting": "prostasin [3]", "result": 25, "unit": "fold"}]}, {"molecule": "[Ni+2]", "note": "[nickel]", "values": [{"measurement": "enhancement effect: increase of enzymatic activity", "setting": "prostasin [3]", "result": 1.4, "unit": "fold"}, {"measurement": "increases in IC50 values", "setting": "prostasin [3]", "result": 100, "unit": "fold"}]}, {"molecule": "[Na+]", "note": "[sodium]", "values": [{"measurement": "effect on substrate specificity profile", "setting": "prostasin [2]", "result": "Neither sodium nor calcium changed the substrate profile"}, {"measurement": "decrease in activity across the libraries", "setting": "prostasin [2]", "result": "50-60%"}]}, {"molecule": "[Zn+2]", "note": "[zinc]", "values": [{"measurement": "increases in IC50 values", "setting": "prostasin [3]", "result": 200, "unit": "fold"}, {"measurement": "relative increase in the activity of substrates with arginine in P1 and histidine in P3", "setting": "prostasin [2]; P1-P3 library", "result": "three fold relative increase"}, {"measurement": "effect on substrate specificity profile", "setting": "prostasin [2]", "result": "did not alter the specificity profiles"}]}, {"molecule": "Ac-KHYR-acmc", "values": [{"measurement": "decrease in the Km", "setting": "prostasin [4]; [8]", "result": 4, "unit": "fold"}, {"measurement": "kcat higher", "setting": "prostasin [4]; [8]", "result": 2.7, "unit": "fold"}, {"measurement": "increase in specificity for KHYR over PRLR", "setting": "prostasin [4]; in the presence of zinc", "result": 30, "unit": "fold"}]}, {"molecule": "Ac-PRLR-acmc", "values": [{"measurement": "increase in the Km", "setting": "prostasin [4]; [8]", "result": 2, "unit": "fold"}, {"measurement": "kcat lower", "setting": "prostasin [4]; [8]", "result": 1.6, "unit": "fold"}]}, {"molecule": "aprotinin", "values": [{"measurement": "Ki", "setting": "prostasin [5]", "result": 0.0025, "unit": "µM"}, {"measurement": "transepithelial sodium transport", "setting": "[6]", "result": "reduces transepithelial sodium transport"}]}, {"molecule": "B1", "values": [{"measurement": "Ki", "setting": "prostasin [5]", "result": "> 0.2", "unit": "µM"}]}]}
